Source: patent publication US5605901A, “Indane derivatives, processes for preparing the same and synthetic intermediate of the same” (Tanabe Seiyaku Co., Ltd., priority 1993, dated 1997)

assay: Action on rat glomerular nephritis (nephrotoxic serum-induced; protein excretion in urine); type: in vivo, rat (WKY strain); conditions: po, 30 mg/kg/10 ml orally twice a day for 8 days, NTS-induced nephritis, 24 hours urine collected after 7 days, read-out: Inhibition rate of excretion of protein in urine
Method: (Action on Rat Glomerular Nephritis)
Rabbits were immunized several times with a renal glomerular basement membrane fraction obtained from WKY strain rats and an adjuvant. Thereafter, blood was collected to obtain a nephrotoxic serum (NTS). This NTS was diluted by 50 times with physiological saline, and the diluted NTS was once administered intravenously to male WKY rats of 8 weeks old in a dose of 2.5 ml per 1 kg of body weight to induce nephritis. In normal group of rats, the same volume of physiological saline was intravenously administered.
In the experiment, one group consisted of 6 rats, and each compound to be tested was suspended in water with small amount of Tween 80 (trade name, produced by Nacalai Tesque Co.), and was orally administered to the test group of rats at a dose of 30 mg/kg/10 ml twice a day for 8 days. In normal group and control group of rats, the same volume of water was orally administered instead of the test compound. After 7 days, the rats were placed in metabolic cages and urine was collected for 24 hours. Concentrations of protein in urine were measured by the sulfosalicylic acid method to determine amounts of protein excreted in the urine (mg/day). The inhibition rate of excretion of protein were calculated by the following equation. [formula]

SMILES | inhibition in vivo at 30 mg/kg [%]
CCCOC(=O)NC1Cc2ccc(-c3ccc(=O)[nH]n3)cc2C1 (stereo not drawn) [Example 48] | 60.3
Cc1ncccc1C(=O)NCCC1Cc2ccc(-c3ccc(=O)[nH]n3)cc2C1 (stereo not drawn) [Example 127] | 93
O=C(NCCC1Cc2ccc(-c3ccc(=O)[nH]n3)cc2C1)c1ccncc1 (stereo not drawn) [Example 109] | 67.4
C=CC(=O)NCCCCC1Cc2ccc(-c3ccc(=O)[nH]n3)cc2C1 (stereo not drawn) [Example 63] | 61.6
O=C(NCC1Cc2ccc(-c3ccc(=O)[nH]n3)cc2C1)c1cccnc1 (stereo not drawn) [Example 60] | 59.5
O=C1CCC(c2ccc3c(c2)CC(CCNC(=O)c2cccnc2)C3)=NN1 (stereo not drawn) [Example 148] | 88.9
Nc1ncccc1C(=O)NCCC1Cc2ccc(-c3ccc(=O)[nH]n3)cc2C1 (stereo not drawn) [Example 129] | 98.9
CCCC(=O)NC1Cc2ccc(-c3ccc(=O)[nH]n3)cc2C1 (stereo not drawn) [Example 40, 2-butyrylamino-5-[pyridazin-3(2H)-on-6-yl]indane] | 72.4
C=CC(=O)NCCCC1Cc2ccc(-c3ccc(=O)[nH]n3)cc2C1 (stereo not drawn) [Example 106] | 81
O=C(NCCC1Cc2ccc(-c3ccc(=O)[nH]n3)cc2C1)c1cccnc1 (stereo not drawn) [Example 110] | 91.8
C=CC(=O)NCCC1Cc2ccc(-c3ccc(=O)[nH]n3)cc2C1 (stereo not drawn) [Example 105] | 60.2

assay: Action of protecting mouse from death induced by endotoxin; type: in vivo, mouse (ddy strain); conditions: 100 mg/kg orally, 30 min before endotoxin 100 mg/10 ml/kg i.p.; determined when control survival became 20 (about 20 hours)
Method: (Action of Protecting Mouse from Death Induced by Endotoxin)
To ddy strain male mice (one group: 10 mice) which had fasted for about 24 hours, each test sample dissolved or suspended in a 0.25% sodium carboxymethyl cellulose (CMC) aqueous solution was orally administered (100 mg/kg). After 30 minutes, 100 mg/10 ml/kg of endotoxin (lipopoly-saccharide) derived from Escherichia coli dissolved in physiological saline was administered intraperitoneally. When the survival rate of the control group to which the CMC aqueous solution had been orally administered became 20 (about 20 hours after administration of endotoxin), the survival rates of the groups to which the test samples had been administered were determined.

SMILES | Survival rate [%]
O=C1CCC(c2ccc3c(c2)CC(NC(=O)c2cnccn2)C3)=NN1 (stereo not drawn) [Example 22] | 70
CCC(=O)NC1Cc2ccc(C3=NNC(=O)CC3)cc2C1 (stereo not drawn) [Example 12] | 90
CCCC(=O)NC1Cc2ccc(C3=NNC(=O)CC3)cc2C1 (stereo not drawn) [Example 11, 2-butyrylamino-5-[4,5-dihydropyridazin-3(2H)-on-6-yl]indane] | 100
O=C1CCC(c2ccc3c(c2)CC(NC(=O)c2cccnc2)C3)=NN1 (stereo not drawn) [Example 18] | 80
CCCN(C(=O)OCC(C)C)C1Cc2ccc(C3=NNC(=O)CC3)cc2C1 (stereo not drawn) [Example 35, 2-(N-propyl-N-isobutoxycarbonylamino)-5-[4,5-dihydropyridazin-3(2H)-on-6-yl]indane] | 80
O=C1CCC(c2ccc3c(c2)CC(NC(=O)c2ccccn2)C3)=NN1 (stereo not drawn) [Example 25] | 80
CCCN(C(=O)OCc1ccccc1)C1Cc2ccc(C3=NNC(=O)CC3)cc2C1 (stereo not drawn) [Example 37] | 60
